Laboratory results taken from patent publication US7439363B2, “Substituted indazoly(indoly)maleimide derivatives as kinase inhibitors” (Janssen Parmaceutica N.V., priority 2003, dated 2008).

What was measured:
Type in all cases: biochemical
PKC isoform β-II = PKC isoform β-II (Homo sapiens, UniProt P05771); test: Protein Kinase C histone-based assay, PKC beta II; details: histone III substrate, 30 μM ATP
Description: (§1) Protein Kinase C Histone-Based Assay
(§2) Compounds were evaluated for PKC selectivity using histone III as the substrate. The PKC isoforms α, β-II or γ were added to a reaction mixture that contained 20 mM HEPES, (pH 7.4), 940 μM CaCl2, 10 mM MgCl2, 1 mM EGTA. 100 μg/mL phosphatidylserine, 20 μg/mL diacylglycerol, 30 μM ATP, 1 μCi (^33P)ATP and 200 μg/mL histone III. The reaction was incubated for 10 min at 30° C. Reactions were terminated by TCA precipitation and spotting on Whatman P81 filters. Filters were washed in 75 mM phosphoric acid and the radioactivity quantified by liquid scintillation counting.

[1] = biological target: T1, recombinant rabbit GSK-3β protein (Oryctolagus cuniculus, UniProt G1T8E2); test: Glycogen Synthase Kinase-3 assay (PPI-2 phosphorylation); details: for IC50: PPI-2 substrate, 33P-ATP
T1 construct: purchased New England Biolabs
Description: Glycogen Synthase Kinase-3 Assay
Compounds were tested for the ability to inhibit recombinant rabbit GSK-3β protein using the following protocol. The test compound was added to a reaction mixture containing Protein phosphatase inhibitor-2 (PPI-2) (Calbiochem) (45 ng), rabbit GSK-3β protein (New England Biolabs) (0.75 units) and ^33P-ATP (1 μCi) in 50 mM Tris-HCl (pH 8.0), 10 mM MgCl2, 0.1% BSA, 1 mM DTT and 100 μM Sodium Vanadate. The mixture was reacted for 90 minutes at 30° C. to allow phosphorylation of the PPI-2 protein and then the protein in the reaction was precipitated using 10% TCA. The precipitated protein was collected on filter plates (MultiScreen-DV/Millipore), which were subsequently washed. Finally, the radioactivity was quantified using a TopCount Scintillation Counter (Packard). […] Staurosporine or Valproate, known inhibitors of GSK-3β, were used as a positive control for screening.

PKC isoform α = PKC isoform α (Homo sapiens, UniProt P17252); test: Protein Kinase C histone-based assay, PKC alpha; details: histone III substrate, 30 μM ATP
Description: as §1, §2

PKC isoform γ = PKC isoform γ (Homo sapiens, UniProt P05129); test: Protein Kinase C histone-based assay, PKC gamma; details: histone III substrate, 30 μM ATP
Description: as §1, §2

T1 sequence (G1T8E2 1-432): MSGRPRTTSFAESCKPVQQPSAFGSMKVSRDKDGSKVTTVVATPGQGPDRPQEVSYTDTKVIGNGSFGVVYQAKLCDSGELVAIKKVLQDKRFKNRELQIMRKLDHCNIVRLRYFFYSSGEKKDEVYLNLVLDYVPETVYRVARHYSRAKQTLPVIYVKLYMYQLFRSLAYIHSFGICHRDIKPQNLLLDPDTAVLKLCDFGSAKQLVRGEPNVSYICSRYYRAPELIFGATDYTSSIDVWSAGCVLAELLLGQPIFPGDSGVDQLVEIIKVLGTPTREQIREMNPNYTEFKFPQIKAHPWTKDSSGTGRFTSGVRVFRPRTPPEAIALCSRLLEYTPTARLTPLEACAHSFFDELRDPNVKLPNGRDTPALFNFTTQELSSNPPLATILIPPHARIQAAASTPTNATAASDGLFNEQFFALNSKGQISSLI
PKC isoform β-II, sequence (P05771 1-673 isoform P05771-2): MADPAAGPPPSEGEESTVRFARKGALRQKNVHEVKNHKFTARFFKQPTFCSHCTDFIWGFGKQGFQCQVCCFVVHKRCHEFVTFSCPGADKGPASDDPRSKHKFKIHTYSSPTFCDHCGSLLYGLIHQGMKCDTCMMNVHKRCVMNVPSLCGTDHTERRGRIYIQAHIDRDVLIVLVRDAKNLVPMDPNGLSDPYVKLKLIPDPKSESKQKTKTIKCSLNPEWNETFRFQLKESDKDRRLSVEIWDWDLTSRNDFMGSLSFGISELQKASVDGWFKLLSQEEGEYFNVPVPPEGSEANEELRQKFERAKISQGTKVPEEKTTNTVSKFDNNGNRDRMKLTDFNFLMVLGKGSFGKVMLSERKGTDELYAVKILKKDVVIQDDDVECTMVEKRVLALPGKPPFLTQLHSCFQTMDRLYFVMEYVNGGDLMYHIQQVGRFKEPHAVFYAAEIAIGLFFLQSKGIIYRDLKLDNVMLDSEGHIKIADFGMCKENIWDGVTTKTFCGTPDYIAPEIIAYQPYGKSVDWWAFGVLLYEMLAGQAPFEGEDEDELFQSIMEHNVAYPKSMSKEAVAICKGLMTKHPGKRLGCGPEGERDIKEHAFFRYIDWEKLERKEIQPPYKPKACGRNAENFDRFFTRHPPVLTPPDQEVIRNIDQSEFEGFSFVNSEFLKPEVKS

Row | IC50 (PKC isoform β-II) [µM] | IC50 [1] [µM] | IC50 (PKC isoform α) [µM] | IC50 (PKC isoform γ) [µM] | GSK-3β Assay Activity, % @ 1 μM ([1]; @ 1 μM) [% @ 1 μM] | Compound
1 | 0.015 | 0.004 | 0.567 | 0.476 | – | Cn1cc(C2=C(c3nn(CCCn4ccnc4)c4ccccc34)C(=O)NC2=O)c2cc(Cl)ccc21 [Compound 1, 3-(5-Chloro-1-methyl-1H-indol-3-yl)-4-[1-(3-imidazol-1-yl-propyl)-1H-indazol-3-yl]-pyrrole-2,5-dione]
2 | 0.046 | 0.003 | 1.21 | 0.395 | – | Cn1cc(C2=C(c3nn(CCCn4ccnn4)c4ccccc34)C(=O)NC2=O)c2cc(Cl)ccc21 [Compound 2, 3-(5-Chloro-1-methyl-1H-indole-3-yl)-4-[1-(3-[1,2,3]triazole-1-yl-propyl)-1H-indzol-3-yl]-pyrrole-2,5-dione]
3 | 0.045 | 0.004 | 2.35 | 1.01 | – | Cn1cc(C2=C(c3nn(CCCn4ncnn4)c4ccccc34)C(=O)NC2=O)c2cc(Cl)ccc21 [Compound 3, 3-(5-Chloro-1-methyl-1H-indol-3-yl)-4-[1-(3-tetrazol-2-yl-propyl)-1H-indazol-3-yl]pyrrole-2,5-dione]
4 | 0.035 | 0.004 | 0.505 | 0.544 | – | Cn1cc(C2=C(c3nn(CCCn4cnnn4)c4ccccc34)C(=O)NC2=O)c2cc(Cl)ccc21 [Compound 4, 3-(5-Chloro-1-methyl-1H-indol-3-yl)-4-[1-(3-tetrazol-1-yl-propyl)-1H-indazol-3-yl]-pyrrole-2,5-dione]
5 | 0.025 | 0.776 | 0.542 | 1.7 | – | O=C1NC(=O)C(c2nn(CCCn3ncnn3)c3ccccc23)=C1c1cn(-c2ccc3ccccc3c2)c2ccccc12 [Compound 5, 3-(1-Naphthalen-2-yl-1H-indole-3-yl)-4-[1-(3-tetrazol-2-yl-propyl)-1H-indazol-3-yl]-pyrrole-2,5-dione]
6 | 0.022 | – | 0.326 | 1.11 | 29 | O=C1NC(=O)C(c2nn(CCCn3cnnn3)c3ccccc23)=C1c1cn(-c2ccc3ccccc3c2)c2ccccc12 [Compound 6, 3-(1-Naphthalen-2-yl-1H-indol-3-yl)-4-[1-(3-tetrazol-1-yl-propyl)-1H-indazol-3-yl]pyrrole-2,5-dione]
7 | 0.044 | 0.027 | 0.451 | 1.45 | – | O=C1NC(=O)C(c2nn(CCCn3ncnn3)c3ccccc23)=C1c1cn(-c2cccnc2)c2ccccc12 [Compound 7, 3-(1-Pyridin-3-yl-1H-indol-3-yl)-4-[1-(3-tetrazol-2-yl-propyl)-1H-indazole-3-yl]-pyrrole-2,5-dione]
8 | 0.052 | 0.034 | 1.04 | 4.3 | – | O=C1NC(=O)C(c2nn(CCCn3cnnn3)c3ccccc23)=C1c1cn(-c2cccnc2)c2ccccc12 [Compound 8, 3-(1-Pyridin-3-yl-1H-indol-3-yl)-4-[1-(3-tetrazol-1-yl-propyl)-1H-indazol-3-yl]-pyrrole-2,5-dione]
9 | 0.041 | 0.005 | 2.98 | 1.42 | – | Cc1nnn(CCCn2nc(C3=C(c4cn(C)c5ccc(Cl)cc45)C(=O)NC3=O)c3ccccc32)n1 [Compound 9]
10 | 0.009 | 0.005 | 0.424 | 0.602 | – | Cc1nnnn1CCCn1nc(C2=C(c3cn(C)c4ccc(Cl)cc34)C(=O)NC2=O)c2ccccc21 [Compound 10]
11 | 0.123 | 0.005 | 1.36 | 1.93 | – | Cn1cc(C2=C(c3nn(CCc4nnn[nH]4)c4ccccc34)C(=O)NC2=O)c2cc(Cl)ccc21 [Compound 11, 3-(5-Chloro-1-methyl-1H-indol-3-yl)-4-{1-[2-(1H-tetrazol-5-yl)-ethyl]-1H-indazol-3-yl)-pyrrole-2,5-dione]
12 | 0.069 | 0.107 | 0.554 | 0.226 | – | O=C1NC(=O)C(c2nn(CCc3nnn[nH]3)c3ccccc23)=C1c1cn(-c2cccnc2)c2ccc(Cl)cc12 [Compound 12]
